Legend:
[1] = (§1) The drug is tested on Z-025 corresponding to rabbit gut metagenome with ENA study accession number: PRJEB37062 and ENA sample accession number: ERS12561824 for biotransformation under anaerobic condition. The drug concentrations were measured over 9 timepoints collected between 0 and 24 hours of incubation by liquid-chromatography-coupled mass spectrometry (LC–MS); conditions: 2 µM
[2] = human gut metagenome, 24 h, 2 µM
[3] = human gut metagenome, 24 h, 2 µM; remark: listed apart in the source
[4] = as §1, with “Z-012” for “Z-025”, “to” for “to rabbit gut”, “ERS12561812” for “ERS12561824”; conditions: 2 µM
[5] = as §1, with “WLS-010” for “Z-025”, “human” for “rabbit”, “ERS12561743” for “ERS12561824”; conditions: 2 µM
[6] = human gut metagenome, 24 h, 2 µM; remark: listed apart in the source
[7] = as §1, with “Z-017” for “Z-025”, “mouse” for “rabbit”, “ERS12561816” for “ERS12561824”; conditions: 2 µM
[8] = as §1, with “WLS-007” for “Z-025”, “human” for “rabbit”, “ERS12561742” for “ERS12561824”; conditions: 2 µM
[9] = as §1, with “Z-014” for “Z-025”, “rat” for “rabbit”, “ERS12561814” for “ERS12561824”; conditions: 2 µM
[10] = human gut metagenome, 24 h, 2 µM; remark: listed apart in the source
[11] = as §1, with “WLS-170” for “Z-025”, “human” for “rabbit”, “ERS12561762” for “ERS12561824”; conditions: 2 µM
[12] = human gut metagenome, 24 h, 2 µM; remark: listed apart in the source
[13] = human gut metagenome, 24 h, 2 µM; remark: listed apart in the source
[14] = as §1, with “Z-018” for “Z-025”, “pig” for “rabbit”, “ERS12561817” for “ERS12561824”; conditions: 2 µM
[15] = human gut metagenome, 24 h, 2 µM; remark: listed apart in the source
[16] = as §1, with “Z-020” for “Z-025”, “ERS12561819” for “ERS12561824”; conditions: 2 µM
[17] = as §1, with “WLS-220” for “Z-025”, “human” for “rabbit”, “ERS12561769” for “ERS12561824”; conditions: 2 µM
[18] = human gut metagenome, 24 h, 2 µM; remark: listed apart in the source
[19] = human gut metagenome, 24 h, 2 µM; remark: listed apart in the source
[20] = as §1, with “WLS-370” for “Z-025”, “human” for “rabbit”, “ERS12561793” for “ERS12561824”; conditions: 2 µM
Note: call rule not given here.

Bacterial Biotransformation [1]	Bacterial Biotransformation [2]	Bacterial Biotransformation [3]	Bacterial Biotransformation [4]	Bacterial Biotransformation [5]	Bacterial Biotransformation [6]	Bacterial Biotransformation [7]	Bacterial Biotransformation [8]	Bacterial Biotransformation [9]	Bacterial Biotransformation [10]	Bacterial Biotransformation [11]	Bacterial Biotransformation [12]	Bacterial Biotransformation [13]	Bacterial Biotransformation [14]	Bacterial Biotransformation [15]	Bacterial Biotransformation [16]	Bacterial Biotransformation [17]	Bacterial Biotransformation [18]	Bacterial Biotransformation [19]	Bacterial Biotransformation [20]	Compound
Compound NOT metabolized	Compound NOT metabolized	Compound NOT metabolized	Compound NOT metabolized	Compound NOT metabolized	Compound NOT metabolized	Compound NOT metabolized	Compound NOT metabolized	Compound NOT metabolized	Compound NOT metabolized	Compound NOT metabolized	Compound NOT metabolized	Compound NOT metabolized	–	Compound NOT metabolized	Compound NOT metabolized	Compound NOT metabolized	Compound NOT metabolized	Compound NOT metabolized	Compound NOT metabolized	N=C(N)NC(=O)Cc1c(Cl)cccc1Cl [GUANFACINE]
Compound NOT metabolized	Compound metabolized	Compound metabolized	Compound metabolized	Compound metabolized	Compound metabolized	Compound metabolized	Compound metabolized	Compound NOT metabolized	Compound metabolized	Compound metabolized	–	Compound metabolized	Compound metabolized	Compound metabolized	Compound metabolized	Compound metabolized	Compound metabolized	Compound metabolized	Compound metabolized	C[C@]12C=CC(=O)C=C1CC[C@@H]1[C@@H]2C(=O)C[C@@]2(C)[C@H]1CC[C@]2(O)C(=O)CO [PREDNISONE]
–	Compound metabolized	Compound NOT metabolized	Compound NOT metabolized	–	Compound NOT metabolized	Compound NOT metabolized	–	Compound NOT metabolized	Compound NOT metabolized	Compound metabolized	Compound NOT metabolized	Compound NOT metabolized	Compound NOT metabolized	Compound NOT metabolized	Compound NOT metabolized	Compound NOT metabolized	Compound NOT metabolized	Compound metabolized	Compound NOT metabolized	CN(C/C=C/C#CC(C)(C)C)Cc1cccc2ccccc12 [TERBINAFINE]

The remaining lines, values behind:

Compound	Bacterial Biotransformation [1]	Bacterial Biotransformation [2]	Bacterial Biotransformation [3]	Bacterial Biotransformation [4]	Bacterial Biotransformation [5]	Bacterial Biotransformation [6]	Bacterial Biotransformation [7]	Bacterial Biotransformation [8]	Bacterial Biotransformation [9]	Bacterial Biotransformation [10]	Bacterial Biotransformation [11]	Bacterial Biotransformation [12]	Bacterial Biotransformation [13]	Bacterial Biotransformation [14]	Bacterial Biotransformation [15]	Bacterial Biotransformation [16]	Bacterial Biotransformation [17]	Bacterial Biotransformation [18]	Bacterial Biotransformation [19]	Bacterial Biotransformation [20]
CN1CCC(OC(c2ccccc2)c2ccccc2)CC1	Compound metabolized	Compound metabolized	Compound NOT metabolized	Compound NOT metabolized	Compound NOT metabolized	Compound NOT metabolized	Compound NOT metabolized	Compound NOT metabolized	Compound NOT metabolized	Compound NOT metabolized	Compound metabolized	Compound NOT metabolized	Compound NOT metabolized	Compound metabolized	Compound NOT metabolized	Compound NOT metabolized	Compound metabolized	Compound NOT metabolized	Compound NOT metabolized	Compound metabolized
CC1=C(CC(=O)O)c2cc(F)ccc2/C1=C\c1ccc([S+](C)[O-])cc1 (configuration not stated)	Compound NOT metabolized	–	Compound metabolized	Compound NOT metabolized	Compound metabolized	Compound metabolized	Compound NOT metabolized	Compound metabolized	Compound NOT metabolized	Compound metabolized	–	–	Compound metabolized	Compound metabolized	Compound metabolized	Compound NOT metabolized	Compound metabolized	Compound metabolized	Compound metabolized	Compound metabolized
CCOC(=O)[C@H](CCc1ccccc1)N[C@@H](C)C(=O)N1Cc2ccccc2C[C@H]1C(=O)O	Compound NOT metabolized	Compound metabolized	Compound metabolized	Compound NOT metabolized	Compound metabolized	Compound metabolized	Compound NOT metabolized	Compound metabolized	Compound NOT metabolized	Compound metabolized	Compound metabolized	Compound metabolized	Compound metabolized	Compound NOT metabolized	Compound metabolized	Compound NOT metabolized	Compound metabolized	Compound metabolized	Compound metabolized	Compound metabolized
N[C@@H](Cc1ccc(N(CCCl)CCCl)cc1)C(=O)O	–	Compound NOT metabolized	Compound metabolized	–	Compound metabolized	Compound metabolized	–	Compound metabolized	–	Compound metabolized	Compound metabolized	Compound metabolized	Compound metabolized	–	Compound metabolized	Compound metabolized	Compound metabolized	Compound metabolized	Compound NOT metabolized	Compound NOT metabolized
CCN1CCCC1CNC(=O)c1cc(S(=O)(=O)CC)c(N)cc1OC (configuration not stated) [AMISULPRIDE]	Compound NOT metabolized	Compound metabolized	Compound NOT metabolized	Compound NOT metabolized	Compound NOT metabolized	Compound NOT metabolized	Compound NOT metabolized	Compound NOT metabolized	Compound NOT metabolized	Compound metabolized	Compound metabolized	Compound NOT metabolized	Compound NOT metabolized	Compound NOT metabolized	Compound NOT metabolized	Compound NOT metabolized	Compound NOT metabolized	Compound NOT metabolized	Compound NOT metabolized	Compound NOT metabolized
CC(C)NCC(O)COc1ccc(CC(N)=O)cc1 (configuration not stated) [ATENOLOL]	Compound NOT metabolized	Compound metabolized	Compound NOT metabolized	Compound NOT metabolized	Compound NOT metabolized	Compound NOT metabolized	Compound NOT metabolized	Compound NOT metabolized	Compound NOT metabolized	Compound metabolized	Compound metabolized	Compound NOT metabolized	Compound NOT metabolized	Compound NOT metabolized	Compound metabolized	Compound NOT metabolized	Compound NOT metabolized	Compound NOT metabolized	Compound NOT metabolized	Compound NOT metabolized
